Values quoted from earlier work as cited in patent US20220088024A1, “METHODS FOR TREATING CANCER USING TOZADENANT” (Biotie Therapies, Inc., priority 2018, published 2022).

Tested on: mouse tumor models
Settings: cited from earlier work

Structure (SMILES) | Efficacy in mouse tumor models (alone and in combination with an anti-PD-1 agent (Willingham et al. 2016)) | Activity in a mouse tumor model (monotherapy (Hammerl et al. 2016))
Cc1ccc(-c2nc(N)nc3c2nnn3Cc2cccc(CO[C@H]3CCOC3)n2)o1 [CPI444] | effective | –
Nc1nc2c(cnn2CCc2ccccc2)c2nc(-c3ccco3)nn12 [SCH 58261] | – | demonstrated activity as monotherapy
